Results taken from patent US20160297851A1, “BROAD SPECTRUM […]” (priority 2012, published 2016).
Values after ≈ are worked out from the molar mass of the structure shown. “Also recorded” adds a separate entry of the source. Like-named read-outs stand apart in the source and are kept apart here.

Tests used:
Experiment in all cases: microbe, parasite or virus in culture
[1] = system: lepB(P84L) E. coli MG1655; type: cell-based, Escherichia coli
[2] = system: wild type S. aureus 8325; type: cell-based, Staphylococcus aureus; details: for MIC: Staphylococcus aureus, Resistant strain (wild type), read-out: MIC
[3] = system: wild type S. epidermidis RP62A; type: cell-based, Staphylococcus epidermidis; details: for MIC: Sensitive strain (SPase without the resistance-conferring Pro)
[4] = system: wild type E. coli MG1655; type: cell-based, Escherichia coli; details: Escherichia coli, MG1655, Resistant strain (wild type); read-out: MIC
[5] = system: wild type P. aeruginosa PAO1; type: cell-based, Pseudomonas aeruginosa; details: Pseudomonas aeruginosa, PAO1, Resistant strain (wild type); read-out: MIC
[6] = system: spsB(S29P) S. epidermidis RP62A; type: cell-based, Staphylococcus epidermidis; details: for MIC: Staphylococcus epidermidis, read-out: MIC
[7] = system: lepB(P84L) P. aeruginosa PAO1; type: cell-based, Pseudomonas aeruginosa; details: for MIC: Pseudomonas aeruginosa, PAO1, Sensitive (genetically sensitized) strain, read-out: MIC
[8] = system: lepB(P29S) S. aureus 8325; type: cell-based, Staphylococcus aureus; details: for MIC: Staphylococcus aureus, Sensitive (genetically sensitized) strain, read-out: MIC
[9] = Table 3, P3 position derivatives, unit not given
[10] = Escherichia coli, MG1655, Sensitive (genetically sensitized) strain, read-out: MIC
[11] = Staphylococcus epidermidis, read-out: MIC

Compound: CCc1ccc(-c2ccc(C(=O)N(C)[C@H](CO)C(=O)N[C@H](C)C(=O)NCC(=O)N(C)[C@@H]3C(=O)N[C@@H](C)C(=O)N[C@H](C(=O)O)Cc4ccc(O)c(c4)-c4cc3ccc4O)cc2)cc1 [Compound 9]
- MIC ([1]; Sensitive (genetically sensitized) strain): >64 µg/mL
- MIC [2]: > 64 µg/mL
- MIC [3]: 64 µg/mL (≈ 75.2 µM)
- MIC [4]: > 64 µg/mL
- MIC [5]: > 64 µg/mL
- MIC [6]: > 64 µg/mL
- MIC [7]: > 64 µg/mL
- MIC [8]: > 64 µg/mL

Compound: CCCCCCCCCCCCCCCC(=O)N(C)[C@H](CO)C(=O)N[C@H](C)C(=O)NCC(=O)N(C)[C@@H]1C(=O)N[C@@H](CCCCC)C(=O)N[C@H](C(=O)O)Cc2ccc(O)c(c2)-c2cc1ccc2O [Compound 30]
- minimal inhibitory concentration (MIC) [1, 9]: >128
- minimal inhibitory concentration (MIC) [3, 9]: 4
- minimal inhibitory concentration (MIC) [7, 9]: >128
- fold loss of activity relative to arylomycin C16 [8]: 32 fold
- minimal inhibitory concentration (MIC) [8, 9]: 16

Compound: CCCCCCCCc1ccc(C(=O)N(C)[C@H](CO)C(=O)N[C@H](C)C(=O)NCC(=O)N(C)[C@@H]2C(=O)N[C@@H](C)C(=O)N[C@H](C(=O)O)Cc3ccc(O)c(c3)-c3cc2ccc3O)cc1 [Compound 14]
- MIC [1, 10]: 32 µg/mL
- MIC [2]: > 64 µg/mL
- MIC [3, 11]: 8 µg/mL (≈ 9.31 µM)
- MIC [4]: > 64 µg/mL
- MIC [5]: > 64 µg/mL
- MIC [6]: > 64 µg/mL
- MIC [7]: > 64 µg/mL
- MIC [8]: 64 µg/mL

Compound: CCCCCCCCCCCCCCCC(=O)N(C)[C@H](CO)C(=O)N[C@H](C)C(=O)NCC(=O)N(C)[C@@H]1C(=O)NCC(=O)N[C@H](C(=O)O)Cc2ccc(O)c(c2)-c2cc1ccc2O [Compound 26]
- fold loss of activity relative to arylomycin C16 [1]: 32 fold
- minimal inhibitory concentration (MIC) [1]: 16
- fold loss of activity relative to arylomycin C16 [3]: 32 fold
- minimal inhibitory concentration (MIC) [3]: 8
- fold loss of activity relative to arylomycin C16 [7]: > 16 fold
- minimal inhibitory concentration (MIC) [7]: >64
- fold loss of activity relative to arylomycin C16 [8]: > 16 fold
- minimal inhibitory concentration (MIC) [8]: >64

Compound: CCCCCCCCc1ccc(-c2ccc(C(=O)N(C)[C@H](CO)C(=O)N[C@H](C)C(=O)NCC(=O)N(C)[C@@H]3C(=O)N[C@@H](C)C(=O)N[C@H](C(=O)O)Cc4ccc(O)c(c4)-c4cc3ccc4O)cc2)cc1 [Compound 12]
- MIC [1, 10]: 1 µg/mL
- MIC [2]: 64 µg/mL (≈ 68.4 µM)
- MIC [3, 11]: 0.5 µg/mL (≈ 0.535 µM)
- MIC [4]: > 64 µg/mL
- MIC [5]: > 64 µg/mL
- activity in words [6]: active
- MIC [6]: 32 µg/mL (≈ 34.2 µM)
- MIC [7]: > 64 µg/mL
- MIC [8]: 8 µg/mL

Compound: CCCCCCCCCCCCCCCC(=O)N(C)[C@H](CO)CCC(=O)N[C@H](C)C(=O)NCC(=O)N(C)[C@@H]1C(=O)N[C@@H](C)C(=O)N[C@H](C(=O)O)Cc2ccc(O)c(c2)-c2cc1ccc2O [Compound 24]
- MIC [1, 10]: > 64 µg/mL
- MIC [2]: 16 µg/mL (≈ 17.6 µM)
- MIC [3, 11]: 8 µg/mL (≈ 8.8 µM)
- MIC [4]: > 64 µg/mL
- MIC [5]: > 64 µg/mL
- MIC [6]: 16 µg/mL (≈ 17.6 µM)
- MIC [7]: > 64 µg/mL
- MIC [8]: 4 µg/mL

Compound: CCCCCCCCCCc1ccc(C(=O)N(C)[C@H](CO)C(=O)N[C@H](C)C(=O)NCC(=O)N(C)[C@@H]2C(=O)N[C@@H](C)C(=O)N[C@H](C(=O)O)Cc3ccc(O)c(c3)-c3cc2ccc3O)cc1 [Compound 15]
- MIC [1, 10]: 8 µg/mL
- activity in words [2]: has activity; also recorded: gains activity
- MIC [2]: > 64 µg/mL
- MIC [3, 11]: 1 µg/mL (≈ 1.13 µM)
- MIC [4]: > 64 µg/mL
- MIC [5]: > 64 µg/mL
- MIC [6]: > 64 µg/mL
- MIC [7]: 64 µg/mL
- MIC [8]: 8 µg/mL

Compound: C[C@@H]1NC(=O)[C@@H](N(C)C(=O)CNC(=O)[C@@H](C)NC(=O)[C@@H](CO)N(C)C(=O)c2ccc(-c3ccccc3)cc2)c2ccc(O)c(c2)-c2cc(ccc2O)C[C@@H](C(=O)O)NC1=O [Compound 8]
- MIC [1, 10]: > 64 µg/mL
- MIC [2]: > 64 µg/mL
- activity in words [3]: retains some activity
- MIC [3, 11]: 32 µg/mL (≈ 38.9 µM)
- MIC [4]: > 64 µg/mL
- MIC [5]: > 64 µg/mL
- MIC [6]: > 64 µg/mL
- MIC [7]: > 64 µg/mL
- MIC [8]: > 64 µg/mL

Compound: CCCCCCCCCCCCCCCC(=O)N(C)[C@H](CO)C(=O)N[C@H](C)C(=O)NCC(=O)N(C)[C@@H]1C(=O)NC(CC(F)(F)F)C(=O)N[C@H](C(=O)O)Cc2ccc(O)c(c2)-c2cc1ccc2O (stereo partly drawn) [Compound 33]
- fold loss of activity relative to arylomycin C16 [1]: 8 fold
- minimal inhibitory concentration (MIC) [1, 9]: 16
- fold loss of activity relative to arylomycin C16 [3]: 32 fold
- minimal inhibitory concentration (MIC) [3, 9]: 8
- fold loss of activity relative to arylomycin C16 [7]: at least 16 fold
- minimal inhibitory concentration (MIC) [7, 9]: >64
- fold loss of activity relative to arylomycin C16 [8]: at least 16 fold
- minimal inhibitory concentration (MIC) [8, 9]: >64

Compound: CCCCCCCCCCCCCCCC(=O)N(C)[C@H](CO)CC(=O)N[C@H](C)C(=O)NCC(=O)N(C)[C@@H]1C(=O)N[C@@H](C)C(=O)N[C@H](C(=O)O)Cc2ccc(O)c(c2)-c2cc1ccc2O [Compound 23]
- MIC [1, 10]: > 64 µg/mL
- activity in words [2]: gain activity
- MIC [2]: 64 µg/mL (≈ 71.5 µM)
- MIC [3, 11]: 4 µg/mL (≈ 4.47 µM)
- MIC [4]: > 64 µg/mL
- MIC [5]: > 64 µg/mL
- MIC [6]: 8 µg/mL (≈ 8.94 µM)
- MIC [7]: > 64 µg/mL
- MIC [8]: 16 µg/mL

Compound: CCCCCCCCCCCCCCCC(=O)N(C)[C@H](CO)C(=O)N[C@H](C)C(=O)NCC(=O)N(C)[C@@H]1C(=O)N[C@@H](CC)C(=O)N[C@H](C(=O)O)Cc2ccc(O)c(c2)-c2cc1ccc2O [Compound 27]
- minimal inhibitory concentration (MIC) [1]: 1
- minimal inhibitory concentration (MIC) [3]: 0.5
- minimal inhibitory concentration (MIC) [7]: 4
- minimal inhibitory concentration (MIC) [8]: 8

Compound: CCCCCCCCCCCCCCCC(=O)N1CC(O)C[C@@H]1C(=O)N[C@H](C)C(=O)NCC(=O)N(C)[C@@H]1C(=O)N[C@@H](C)C(=O)N[C@H](C(=O)O)Cc2ccc(O)c(c2)-c2cc1ccc2O (stereo partly drawn) [Compound 19]
- MIC [1, 10]: > 64 µg/mL
- MIC [2]: > 64 µg/mL
- MIC [3, 11]: 4 µg/mL (≈ 4.48 µM)
- MIC [4]: > 64 µg/mL
- MIC [5]: > 64 µg/mL
- MIC [6]: 8 µg/mL (≈ 8.96 µM)
- MIC [7]: > 64 µg/mL
- MIC [8]: 4 µg/mL

Compound: CCCCCCCCCCCCCCCC(=O)N(C)[C@H](CO)C(=O)N[C@H](C)C(=O)NCC(=O)N(C)[C@@H]1C(=O)N[C@@H](C(C)C)C(=O)N[C@H](C(=O)O)Cc2ccc(O)c(c2)-c2cc1ccc2O [Compound 34]
- activity in words [1]: maintained activity
- minimal inhibitory concentration (MIC) [1, 9]: 4
- minimal inhibitory concentration (MIC) [3, 9]: 4
- fold loss of activity relative to arylomycin C16 [7]: 4 fold
- minimal inhibitory concentration (MIC) [7, 9]: 16
- minimal inhibitory concentration (MIC) [8, 9]: 32

Compound: CCCCCCCCCCCCCCCC(=O)N(C)[C@H](CO)C(=O)N[C@H](C)C(=O)NCC(=O)N(C)[C@@H]1C(=O)N[C@@H](CC(C)C)C(=O)N[C@H](C(=O)O)Cc2ccc(O)c(c2)-c2cc1ccc2O [Compound 35]
- activity in words [1]: maintained activity
- minimal inhibitory concentration (MIC) [1]: 4
- minimal inhibitory concentration (MIC) [3]: 2
- fold loss of activity relative to arylomycin C16 [7]: > 16 fold
- minimal inhibitory concentration (MIC) [7]: >64
- minimal inhibitory concentration (MIC) [8]: 32

Compound: CCCCCCCCCCCCCCCC(=O)N(C)[C@H](CO)C(=O)N[C@H](C)C(=O)NCC(=O)N(C)[C@@H]1C(=O)N[C@@H](CCC)C(=O)N[C@H](C(=O)O)Cc2ccc(O)c(c2)-c2cc1ccc2O [Compound 28]
- minimal inhibitory concentration (MIC) [1, 9]: 2
- minimal inhibitory concentration (MIC) [3, 9]: 1
- minimal inhibitory concentration (MIC) [7, 9]: 8
- minimal inhibitory concentration (MIC) [8, 9]: 8

Compound: CCCCCCCCCCCCCCCC(=O)N(C)[C@H](CO)C(=O)N[C@H](C)C(=O)NCC(=O)N(C)[C@@H]1C(=O)N[C@@H](CCCC)C(=O)N[C@H](C(=O)O)Cc2ccc(O)c(c2)-c2cc1ccc2O [Compound 29]
- minimal inhibitory concentration (MIC) [1]: >128
- minimal inhibitory concentration (MIC) [3]: 4
- minimal inhibitory concentration (MIC) [7]: >128
- fold loss of activity relative to arylomycin C16 [8]: 32 fold
- minimal inhibitory concentration (MIC) [8]: 16
